Results: paper PMC12086673, “Selective inhibition of NikA mediated Ni(II) import in E. coli by the Indium(III)-EDTA complex” (Metallomics: Integrated Biometal Science, 2025)

Molecular target: T1, NikA (Escherichia coli, UniProt P33590)
T1 construct: wild type NikA, purified from periplasm (56 304 Da)
Assay: isothermal titration calorimetry, one-site model
Format: binding

T1 sequence (P33590 23-524): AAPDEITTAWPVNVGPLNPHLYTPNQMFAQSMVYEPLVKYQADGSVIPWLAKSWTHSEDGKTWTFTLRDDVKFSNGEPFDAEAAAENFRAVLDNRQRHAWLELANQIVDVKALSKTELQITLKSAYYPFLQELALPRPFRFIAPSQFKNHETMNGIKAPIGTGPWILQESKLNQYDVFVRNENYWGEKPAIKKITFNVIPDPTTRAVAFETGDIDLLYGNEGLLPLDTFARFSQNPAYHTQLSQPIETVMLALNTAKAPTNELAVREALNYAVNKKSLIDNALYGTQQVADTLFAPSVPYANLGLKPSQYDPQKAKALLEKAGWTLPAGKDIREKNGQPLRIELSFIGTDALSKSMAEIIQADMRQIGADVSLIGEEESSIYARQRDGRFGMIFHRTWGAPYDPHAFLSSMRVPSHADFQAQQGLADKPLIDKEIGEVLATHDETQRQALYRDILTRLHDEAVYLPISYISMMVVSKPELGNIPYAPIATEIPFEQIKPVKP

Structure (SMILES)	Kd [µM]
O=C([O-])CN(CCN(CC(=O)[O-])CC(=O)O)CC(=O)[O-].[Fe+3] [Fe(III)-EDTA]	7.4 ± 0.7
O=C([O-])CN(CCN(CC(=O)[O-])CC(=O)O)CC(=O)[O-].[In+3] [In(III)-EDTA]	17.3 ± 3
